TGI data for 18 compounds are collected here from PubChem BioAssay (NCI).

Holding throughout (test): growth of human tumour cells (NCI), 48 h
Assay [1] deals with HCT-15 colon.
Assay [2] relates to RXF 393 renal.
The subject of assay [3] is 786-0 renal.
Assay [4] relates to MCF7 breast.
For assay [5], the system named is M14 melanoma.
The subject of assay [6] is SNB-19 CNS.
In assay [7] the test system is HOP-18 NSCLC.
Assay [8] has as its system LXFL 529 NSCLC.
Assay [9] deals with M19-MEL melanoma.
For assay [10], the system named is DLD-1 colon.
Assay [11] concerns DMS 273 small cell lung.

The structures appear in SMILES notation.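 Where inhibition never reached the appropriate level, the endpoint shown equals the highest concentration tested. Otherwise, values were interpolated linearly from a five-concentration, 48-hour dose response in 96-well plates. TGI: concentration producing complete growth inhibition.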

Take `CCOC(=O)CCC(C(=O)OCC)n1nnc2ccc(Nc3c(C)[n+]([O-])c4cc(Cl)ccc4[n+]3[O-])cc21` (stereo unspecified): the TGI in assay [1] was 58.2 µM; in assay [2], 60.8 µM; in assay [3], greater than 100 µM; in assay [4] it was 34.3 µM; in assay [5], 40.2 µM; in assay [6], greater than 100 µM.
Turning to `COc1ccc(C2CC(=O)CC(c3ccc(OC)cc3)C23C(=O)NC(=S)NC3=O)cc1` (stereo unspecified), the TGI in assay [1], in assay [2], in [3], in assay [4], in [5] and in assay [6] was greater than 100 µM in each case.
On to `Cc1cc(S(=O)(=O)NC2=NC(c3ccccc3)c3ccccc3N2)c(S)cc1Cl` (stereo unspecified), for which the TGI in [1], in [2], in [3], in [4], in assay [5] and in assay [6] was greater than 100 µM each time.
`COc1cc(S(=O)(=O)Nc2nc(-c3ccc(N)cc3)cs2)ccc1Cl`: the TGI in [1], in assay [2], in assay [3], in assay [4], in assay [5] and in [6] was greater than 100 µM each time.
Consider `CN(C)c1nc(=NCc2cccs2)ss1`, for which the TGI in assay [1], in assay [2], in [3], in assay [4], in assay [5] and in [6] was greater than 10 µM throughout.
For the compound `CCCCCCCCCCCCCCCCOCC(COP(=O)([O-])OCC[n+]1ccc(N(C)C)cc1)OCC` (stereo unspecified), the TGI was found to be 32.5 µM in [1]; 31.7 µM in assay [2]; 34.2 µM in assay [3]; 36.1 µM in assay [4]; 26.7 µM in assay [5]; 14.4 µM in [6].
`O=C1Nc2cc([N+](=O)[O-])ccc2C(=O)N2CCC[C@@H]12`: the TGI in assay [1], in assay [2], in [3], in assay [4], in assay [5] and in assay [6] was greater than 100 µM each time.
On to `COc1ccc(OC)c(-c2nc3ccccc3c(=O)[nH]2)c1`, for which the TGI in [1], in assay [2], in assay [3], in assay [4], in [5] and in assay [6] was greater than 100 µM in each case.
Take `CN1C(=O)[C@@H]2N(CSC2(C)C)C1=S`: the TGI in assay [1], in [2], in assay [3], in [4], in assay [5] and in [6] was greater than 100 µM throughout.
Turning to `CCOC(CI)O[C@@H]1C=C[C@H](OC(C)=O)C1` (stereo partly specified), the TGI in [1], in [2], in assay [3], in [4], in assay [5] and in assay [6] was greater than 100 µM throughout.
For `Cc1ccsc1C(=O)C(CC(=O)c1cccs1)c1ccsc1` (stereo unspecified), the TGI in assay [1], in [2], in [3], in assay [4], in [5] and in assay [6] was greater than 100 µM each time.
As to `Cc1nc2ccccc2c(=O)n1NC(=S)Nc1cccc(Cl)c1`, the TGI in assay [7], in [1], in assay [2], in [8], in assay [3] and in assay [5] was greater than 100 µM each time. In addition, the TGI in [9], in [10] and in assay [11] was greater than 100 µM throughout.
Consider `COc1cc(Br)cc2nc(-c3cccs3)oc12`, for which the TGI in [1], in assay [2], in assay [3], in assay [4], in assay [5] and in [6] was greater than 100 µM in each case.
`CC[C@H](C)C1=C(O)[N@+]2([O-])Oc3ccc(-c4c(O)c(O)c(-c5ccc(OC(C)=O)cc5)c(OC(C)=O)c4OC(C)=O)cc3O[C@]2([C@@H](C)CC)C(=O)N1O`: the TGI in [1], in assay [2], in assay [3], in [4], in [5] and in assay [6] was greater than 50 µM throughout.
As to `COc1c(C)c(C/C=C(\C)CCCCO)c(OC)c(OC)c1OC`, the TGI in assay [1], in assay [2], in [3], in assay [4], in [5] and in [6] was greater than 100 µM each time.
Consider `COc1ccc(N2C(=O)c3cccnc3S2(=O)=O)cc1`, for which the TGI in [1], in [2], in [3], in assay [4], in assay [5] and in assay [6] was greater than 100 µM in each case.
As for `CCO/C=N/C1=C(C#N)C(c2ccc(Cl)cc2)c2c(-c3ccccc3)nn(-c3ccccc3)c2O1` (stereo unspecified), the TGI in assay [1] is greater than 52.5 µM; in [2], 28.6 µM; in assay [3] it was 32.2 µM; in assay [4] it was 25 µM; in [5], 20.3 µM; in assay [6], 24.7 µM.
Regarding `CC(C)C1SCc2nc3ccccc3n21` (stereo unspecified), the TGI is greater than 100 µM in [1]; greater than 100 µM in assay [2]; greater than 100 µM in [3]; 45.8 µM in assay [4]; greater than 100 µM in [5]; greater than 100 µM in [6].
